Test results published in PubChem BioAssay AID1259411 (Chemical Carcinogenesis Research Information System (CCRIS), 2018).
Calls of active or inactive are those of the source. No rule for the calls is given here.

Tested on: rodent carcinogenicity bioassays, tumor incidence
Experiment: CCRIS carcinogenicity studies
In short: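 Archive of carcinogenicity, mutagenicity, tumor promotion and tumor inhibition results drawn from journals, NCI reports and other sources, expert-reviewed; covers 1985-2011 and is no longer updated.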

Measured: carcinogen call

CCOC(N)=O
active: Species: HAMSTER, Route: DERMAL, Tumor Site: Type of Lesion: INTEGUMENTARY SYSTEM (SKIN), MAMMARY GLAND active; positive | Species: HAMSTER, Route: INTRAPERITONEAL, Tumor Site: Type of Lesion: INTEGUMENTARY SYSTEM (SKIN) active; positive | Species: HAMSTER, Route: ORAL, Tumor Site: Type of Lesion: FORESTOMACH, INTEGUMENTARY SYSTEM (SKIN) active; positive | Species: HAMSTER, Route: SUBCUTANEOUS, Tumor Site: Type of Lesion: ADRENAL GLAND, FORESTOMACH, INTESTINES, INTEGUMENTARY SYSTEM (SKIN), Tumor Site: Type of Lesion: ADRENAL GLAND, FORESTOMACH, INTESTINES, INTEGUMENTARY SYSTEM (SKIN) active; positive | Species: MOUSE, Route: INHALATION, Tumor Site: Type of Lesion: LUNG active; positive | Species: MOUSE, Route: INTRAPERITONEAL, Tumor Site: Type of Lesion: HEMATOPOIETIC SYSTEM (LEUKEMIA), LYMPHATIC SYSTEM: LYMPHOMA, LUNG, LIVER, HARDERIAN GLAND, OVARIES, Tumor Site: Type of Lesion: HEMATOPOIETIC SYSTEM (LEUKEMIA), LYMPHATIC SYSTEM: LYMPHOMA, LUNG, LIVER, HARDERIAN GLAND, OVARIES active; positive | Species: MOUSE, Route: INTRAPERITONEAL, Tumor Site: Type of Lesion: LUNG, LIVER active; positive | Species: MOUSE, Route: ORAL, Tumor Site: Type of Lesion: HEMATOPOIETIC SYSTEM (LEUKEMIA): LYMPHOCYTIC LEUKEMIA, LYMPHATIC SYSTEM: LYMPHOSARCOMA, MAMMARY GLAND, LUNG, LIVER, THYM, Tumor Site: Type of Lesion: HEMATOPOIETIC SYSTEM (LEUKEMIA): LYMPHOCYTIC LEUKEMIA, LYMPHATIC SYSTEM: LYMPHOSARCOMA, MAMMARY GLAND, LUNG, LIVER, THYM active; positive | Species: MOUSE, Route: SUBCUTANEOUS, Tumor Site: Type of Lesion: HARDERIAN GLAND, HEMATOPOIETIC SYSTEM (LEUKEMIA), LIVER, LUNG, Tumor Site: Type of Lesion: HARDERIAN GLAND, HEMATOPOIETIC SYSTEM (LEUKEMIA), LIVER, LUNG active; positive | Species: MOUSE, Strain/Sex: B6C3F1/FEMALE (48/GROUP), Route: ORAL, Dose: 10, 30, 90 PPM IN DRINKING WATER (STUDY DURATION: 2 YRS), Dose: 10, 30, 90 PPM IN DRINKING WATER (STUDY DURATION: 2 YRS), Tumor Site: Type of Lesion: MAMMARY GLAND: ADENOACANTHOMA, ADENOCARCINOMA, OVARY: GRANULOSA CELL TUMOR (BENIGN OR MALIGNANT), SPLEEN: HEMANGIOSARCOM, Tumor Site: Type of Lesion: MAMMARY GLAND: ADENOACANTHOMA, ADENOCARCINOMA, OVARY: GRANULOSA CELL TUMOR (BENIGN OR MALIGNANT), SPLEEN: HEMANGIOSARCOM active; positive ; marginal but not significant increases of hemangiosarcomas occurred i | Species: MOUSE, Strain/Sex: B6C3F1/MALE (48/GROUP), Route: ORAL, Dose: 10, 30, 90 PPM IN DRINKING WATER (STUDY DURATION: 2 YRS), Dose: 10, 30, 90 PPM IN DRINKING WATER (STUDY DURATION: 2 YRS), Tumor Site: Type of Lesion: HEART: HEMANGIOSARCOMA, FORESTOMACH: SQUAMOUS CELL PAPILLOMA OR CARCINOMA (COMBINED), SKIN: SQUAMOUS CELL PAPILLOMA OR C, Tumor Site: Type of Lesion: HEART: HEMANGIOSARCOMA, FORESTOMACH: SQUAMOUS CELL PAPILLOMA OR CARCINOMA (COMBINED), SKIN: SQUAMOUS CELL PAPILLOMA OR C active; positive | Species: MOUSE, Strain/Sex: B6C3F1/MALE, FEMALE (48/GROUP), Route: ORAL, Dose: 10, 30, 90 PPM IN DRINKING WATER (STUDY DURATION: 2 YRS), Dose: 10, 30, 90 PPM IN DRINKING WATER (STUDY DURATION: 2 YRS), Tumor Site: Type of Lesion: LIVER: HEMANGIOSARCOMA, HEPATOCELLULAR ADENOMA OR CARCINOMA (COMBINED), LUNG: ADENOMA OR CARCINOMA (COMBINED): HARDERIAN active; positive | Species: MOUSE, Strain/Sex: B6C3F1/MALE, Route: INTRAPERITONEAL, Dose: 0, 125 UG/G BW IN 10 µL TRIOCTANOIN ONCE (STUDY DURATION: 9 MO), Tumor Site: Type of Lesion: LIVER: HEPATOMA active; positive | Species: MOUSE, Strain/Sex: B6C3F1/MALE, Route: ORAL, Dose: 0, 0.6, 3, 6, 60, 600 PPM IN DRINKING WATER FOR 70 WK (STUDY DURATION: 70 WK), Dose: 0, 0.6, 3, 6, 60, 600 PPM IN DRINKING WATER FOR 70 WK (STUDY DURATION: 70 WK), Tumor Site: Type of Lesion: LUNG: ALVEOLAR/BRONCHIOLAR CARCINOMA, ALVEOLAR/BRONCHIOLAR ADENOMA, LIVER: ANGIOSARCOMA, HEMANGIOMA active; positive | Species: MOUSE, Strain/Sex: C57BL, Route: INTRAPERITONEAL, Dose: 1.00 MG/G 10 TIMES AT WEEKLY INTERVALS, Tumor Site: Type of Lesion: THYMUS GLAND: LYMPHOSARCOMA, LUNG: ADENOMA active; positive | Species: MOUSE, Strain/Sex: CTM/MALE,FEMALE, Route: ORAL, Dose: 0, 0.4% IN DRINKING WATER, 1 OR 2 10-D TREATMENTS OR 1, 2 OR 3 5-D TREATMENTS WITH 10-D INTERVALS BETWEEN TREATMENTS, Dose: 0, 0.4% IN DRINKING WATER, 1 OR 2 10-D TREATMENTS OR 1, 2 OR 3 5-D TREATMENTS WITH 10-D INTERVALS BETWEEN TREATMENTS, Tumor Site: Type of Lesion: LUNG: ADENOMA, LYMPHOSARCOMA active; positive | Species: MOUSE, Strain/Sex: HR/HR/MALE, FEMALE, Route: DERMAL, Dose: 0, 10, 20, 40% IN 200 µL ACETONE 2/WK FOR STUDY DURATION (STUDY DURATION: 56-60 WK), Dose: 0, 10, 20, 40% IN 200 µL ACETONE 2/WK FOR STUDY DURATION (STUDY DURATION: 56-60 WK), Tumor Site: Type of Lesion: SKIN: CARCINOMA, PAPILLOMA, LUNG: ADENOMA active; positive | Species: MOUSE, Strain/Sex: HR/HR/MALE, FEMALE, Route: DERMAL, Dose: 0, 15, 30, 75% IN PROPYLENE GLYCOL 2/WK FOR STUDY DURATION (STUDY DURATION: 56-60 WK), Dose: 0, 15, 30, 75% IN PROPYLENE GLYCOL 2/WK FOR STUDY DURATION (STUDY DURATION: 56-60 WK), Tumor Site: Type of Lesion: SKIN: CARCINOMA, PAPILLOMA, LUNG: ADENOMA active; positive | Species: MOUSE, Strain/Sex: ICR/FEMALE, Route: INHALATION, Dose: 0, 0.25 UG/ML AIR FOR 0.25 D (TOTAL DOSE 0.25 UG/ML/D) (STUDY DURATION: 5 MO), Tumor Site: Type of Lesion: LUNG: TUMOR, HEMATOPOIETIC SYSTEM: LEUKEMIA active; positive | Species: MOUSE, Strain/Sex: ICR/FEMALE, Route: INHALATION, Dose: 0, 0.25 UG/ML AIR FOR 3 D (TOTAL DOSE 0.75 UG/ML/D) (STUDY DURATION: 5 MO), Tumor Site: Type of Lesion: LUNG: TUMOR, HEMATOPOIETIC SYSTEM: LEUKEMIA active; positive
